According to PMC6193555 (Nutrition and cancer, 2017):

Experiments:
c-Met = c-Met (Homo sapiens, UniProt P08581); test: Z'-LYTE cell-free kinase assay, positive control; type: biochemical
c-Met (M1250T) = c-Met (M1250T) (Homo sapiens, UniProt P08581, M1250T); test: Z'-LYTE cell-free kinase assay; type: biochemical
c-Met (M1250T), sequence (P08581 956-1390 M1250T limits assumed): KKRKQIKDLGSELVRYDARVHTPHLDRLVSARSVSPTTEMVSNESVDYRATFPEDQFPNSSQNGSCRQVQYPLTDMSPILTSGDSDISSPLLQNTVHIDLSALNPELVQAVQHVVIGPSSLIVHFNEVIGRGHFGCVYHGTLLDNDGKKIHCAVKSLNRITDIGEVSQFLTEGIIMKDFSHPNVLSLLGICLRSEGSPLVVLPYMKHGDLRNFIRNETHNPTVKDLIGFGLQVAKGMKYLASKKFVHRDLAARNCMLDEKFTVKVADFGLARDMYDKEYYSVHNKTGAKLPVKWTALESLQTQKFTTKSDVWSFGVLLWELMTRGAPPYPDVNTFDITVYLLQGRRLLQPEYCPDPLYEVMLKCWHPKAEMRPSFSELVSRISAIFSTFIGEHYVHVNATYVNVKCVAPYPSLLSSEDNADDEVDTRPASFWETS

c-Met, sequence (P08581 25-307): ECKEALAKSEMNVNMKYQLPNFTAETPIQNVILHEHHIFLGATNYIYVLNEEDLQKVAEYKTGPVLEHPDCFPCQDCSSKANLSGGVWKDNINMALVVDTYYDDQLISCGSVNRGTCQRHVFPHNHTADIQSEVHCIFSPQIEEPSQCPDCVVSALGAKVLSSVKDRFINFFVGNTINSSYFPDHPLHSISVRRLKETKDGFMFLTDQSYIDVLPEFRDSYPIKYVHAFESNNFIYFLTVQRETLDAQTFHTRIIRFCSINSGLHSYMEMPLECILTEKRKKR
c-Met, sequence (P08581 308-1390): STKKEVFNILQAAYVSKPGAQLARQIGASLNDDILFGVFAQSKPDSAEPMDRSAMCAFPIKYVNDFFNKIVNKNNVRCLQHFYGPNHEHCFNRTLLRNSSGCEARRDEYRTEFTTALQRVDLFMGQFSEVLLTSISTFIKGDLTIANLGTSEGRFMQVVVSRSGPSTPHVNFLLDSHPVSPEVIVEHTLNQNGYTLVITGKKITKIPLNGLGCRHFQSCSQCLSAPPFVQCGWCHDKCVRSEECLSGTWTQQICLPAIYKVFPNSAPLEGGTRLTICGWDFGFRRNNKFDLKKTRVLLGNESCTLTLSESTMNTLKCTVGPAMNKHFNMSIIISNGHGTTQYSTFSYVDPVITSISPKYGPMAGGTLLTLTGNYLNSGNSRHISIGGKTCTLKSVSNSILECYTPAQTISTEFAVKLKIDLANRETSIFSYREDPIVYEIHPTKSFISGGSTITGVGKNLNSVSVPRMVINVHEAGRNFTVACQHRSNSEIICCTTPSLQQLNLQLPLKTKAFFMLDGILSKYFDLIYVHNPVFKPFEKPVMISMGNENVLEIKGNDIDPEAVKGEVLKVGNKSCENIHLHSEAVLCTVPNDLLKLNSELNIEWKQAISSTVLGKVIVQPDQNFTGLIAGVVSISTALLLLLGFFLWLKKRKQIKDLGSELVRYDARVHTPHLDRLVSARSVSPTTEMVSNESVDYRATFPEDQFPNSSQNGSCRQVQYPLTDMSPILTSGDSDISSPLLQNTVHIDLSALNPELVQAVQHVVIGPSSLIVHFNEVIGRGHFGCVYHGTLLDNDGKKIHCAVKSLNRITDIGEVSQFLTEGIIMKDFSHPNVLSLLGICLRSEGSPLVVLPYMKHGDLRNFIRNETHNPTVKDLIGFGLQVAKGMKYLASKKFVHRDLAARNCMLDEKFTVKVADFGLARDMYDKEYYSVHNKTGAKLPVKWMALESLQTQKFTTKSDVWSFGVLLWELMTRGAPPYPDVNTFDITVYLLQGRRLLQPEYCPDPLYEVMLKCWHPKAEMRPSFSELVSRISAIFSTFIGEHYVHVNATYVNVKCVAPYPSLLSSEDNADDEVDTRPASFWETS

C/C=C(/C=O)[C@@H](CC=O)CC(=O)OCCc1ccc(O)cc1 [(–)-oleocanthal]
Z'-LYTE cell-free kinase assay, positive control (c-Met): (–)-oleocanthal was utilized as a positive control in Z'-LYTE cell free assay as a documented c-Met inhibitory phenolic

C[C@@H]1O[C@@H](OC[C@H]2O[C@@H](Oc3c(-c4ccc(O)c(O)c4)oc4cc(O)cc(O)c4c3=O)[C@H](O)[C@@H](O)[C@@H]2O)[C@H](O)[C@H](O)[C@H]1O [compound 6, quercetin 3-O-[α-L-^1C4-rhamnopyranosyl 1'”→6” β-D-^4C1-glucopyranoside]]
IC50 (c-Met (M1250T)): 8.5 µM
